For one data set, the system named is wounds in diabetic rats. The conditions noted are these: cited from earlier work.
The test system of data set [1] is excision wound on dorsal surface of diabetic rats. Kind of data set: Wound closure in wounded diabetic rats, topical hydrogel treatment. The class given is in vivo, male Wistar rats. The conditions noted are these: day 7, topical daily, 1.5% w/v HPMC hydrogel (TA 4.1, GA 12.5, thioctamer 16.6 mg/g gel), mean±SD, n=6.
Method: Rats were anesthetized by xylazine and ketamine (10 mg/kg and 100 mg/kg, respectively IP injection). The dorsal surface was shaved, the skin was sterilized by povidone-iodine solution, and an excision circle (1 cm diameter) was made on dorsal surface. After the excision, the wounds were cleaned and dried using sterile saline solution and sterile pads, respectively. Subcutaneous injection of 2% solution of lidocaine hydrochloride having 1:80,000 epinephrine (4.4 mg/kg) was performed near the wound area to reduce pain. […] At days 0, 4, 7, and 10, wounds were photographed and assessed. […]
A further data set has as its system TNF-α. The experiment in a line: Immunohistochemical assessment of TNF-α expression in wounded skin. In kind it is in vivo, male Wistar rats. The conditions noted are these: wounded skin of diabetic rats; negative control 0.47±0.048; mean±SD, n=6.
A short description of data set [2]: Thioctamer zeta potential and particle size evaluation (Zetasizer Nano ZSP). In kind it is physicochemical. How it is done: Thioctamer was prepared by conjugation of GA and TA in a 1:1 molar ratio. TA was solvated in deionized water (with added of triethanolamine in a 1:1 molar ratio with the amount of TA). GA was dissolved separately in deionized water. The two aqueous solutions were mixed and then vortexed for 60 sec. The prepared thioctamer was assessed for zeta potential and particle size utilizing a Zetasizer Nano ZSP (Malvern Instruments Ltd., Malvern, UK).

The next data set relates to wound on rat skin. The settings on record: seventh day after surgery; topical; negative control 43.0±17.4%; cited from earlier work.
For the next data set, the system named is IL-6. The experiment in a line: Immunohistochemical assessment of IL-6 expression in wounded skin. In kind it is in vivo, male Wistar rats. The conditions noted are these: wounded skin of diabetic rats; negative control 0.42±0.044; mean±SD, n=6.
Data set [3] has as its system wound tissues of diabetic rats. Kind of data set: Histological investigation of wound tissue (H&E, Masson's trichrome). The class given is in vivo, male Wistar rats. The conditions noted are these: for Ang = Angio-genesis / CD = Collagen deposition / FP = Fibroblast proliferation / GT = Granulation tissue / IC = Inflammatory cell infiltration / RE = Re-epithelization: day 10 wound healing, topical application, diabetic rats; for healing rate by histology (in words): wound tissues collected on day 10, H&E or Masson's trichrome. As for the experimental part: Thirty 210-240 g male Wistar rats were provided by KAU's animal facility and were maintained on a 12-hr dark-light cycle at a temperature of 22 ±2° C. […] Induction of diabetes in rats was carried out as formerly described, i.e. prior to the study, rats were intra-peritoneally injected with streptozotocin (50 mg/kg) for two weeks. Go Accu-Chek was utilized for assessing the level of fasting blood glucose (Roche, Mannheim, Germany) Moderate-diabetic rats with level of fasting blood glucose (200-300 mg/100 mL) were chosen for the experiment.
Rats were anesthetized by xylazine and ketamine (10 mg/kg and 100 mg/kg, respectively IP injection). The dorsal surface was shaved, the skin was sterilized by povidone-iodine solution, and an excision circle (1 cm diameter) was made on dorsal surface. After the excision, the wounds were cleaned and dried using sterile saline solution and sterile pads, respectively. Subcutaneous injection of 2% solution of lidocaine hydrochloride having 1:80,000 epinephrine (4.4 mg/kg) was performed near the wound area to reduce pain. […] All treatments were topically applied daily for a total of 10 days. The wounds were wrapped with sterile gauze dressings and changed daily. At days 0, 4, 7, and 10, wounds were photographed and assessed. Animals were sacrificed by beheading at the end of day 10 and the skin of wound area was cut out. From each animal, a part of the obtained skin was retained in 10% neutral formalin, while the other part was preserved at -80° C. for further analyses.
Wound tissues were preserved for 24 h in 10% neutral formalin, then dehydrated using serial concentrations of ethanol, passed through xylene as a clearing agent, and inserted in paraffin. Tissues' paraffin blocks were cut into 5 μm thickness that were rehydrated after dewaxing. Some sections were stained using E&H (eosin and hematoxylin), whereas the remaining were stained with MT (Masson's trichrome). Histological investigation was carried out by a pathologist without prior knowledge of the groups'treatment. On the basis of the abundance/degree of inflammatory cell infiltration, proliferation of fibroblasts, deposition of collagen, angiogenesis, tissue granulation, and re-epithelization, scores were assigned in a range from - to +++.

Method for IL-6: (§1) Rats were anesthetized by xylazine and ketamine (10 mg/kg and 100 mg/kg, respectively IP injection). The dorsal surface was shaved, the skin was sterilized by povidone-iodine solution, and an excision circle (1 cm diameter) was made on dorsal surface. After the excision, the wounds were cleaned and dried using sterile saline solution and sterile pads, respectively. Subcutaneous injection of 2% solution of lidocaine hydrochloride having 1:80,000 epinephrine (4.4 mg/kg) was performed near the wound area to reduce pain. […] All treatments were topically applied daily for a total of 10 days. The wounds were wrapped with sterile gauze dressings and changed daily. At days 0, 4, 7, and 10, wounds were photographed and assessed. Animals were sacrificed by beheading at the end of day 10 and the skin of wound area was cut out. […]
Method for TNF-α: as §1

In the case of `O=C(O)CCCCC1CCSS1` (centres unmarked) [TA, thioctic acid], the “time to complete wound closure” value in the data set on wounds in diabetic rats is 8 days. In addition, the “% wound contraction (healing)” value in data set [1] is reported as 56.5±5.8%. Also, the “TNF-α expression (immunohistochemistry, image analysis)” value in the data set with TNF-α worked out at 0.374±0.039. This compound also showed a zeta potential in data set [2] of -26.6±5.39 mV. In addition, in the data set on wound on rat skin, the healing rate is reported as 60.7±8.4%. For the same compound, the “IL-6 expression (immunohistochemistry, image analysis)” value in the data set on IL-6 amounted to 0.324±0.043. For the same compound, in data set [3], the “Ang = Angio-genesis” value was “+”, the “CD = Collagen deposition” value was “++”, the “FP = Fibroblast proliferation” value is “++” and the “GT = Granulation tissue” value was “++”. In addition, in data set [3], the “IC = Inflammatory cell infiltration” value is “+++”, the “RE = Re-epithelization” value is on record as “++” and the “healing rate by histology (in words)” value is “moderate healing rate”.
In the case of “L-alanine compound with L-tyrosine compound with L-lysine compound with L-glutamic acid acetic acid [GA]”, the “% wound contraction (healing)” value in data set [1] is 62.6±7.1%. Besides, the “TNF-α expression (immunohistochemistry, image analysis)” value with TNF-α worked out at 0.34±0.05. The “IL-6 expression (immunohistochemistry, image analysis)” value in the data set with IL-6 turned out to be 0.318±0.033. In data set [3], the “Ang = Angio-genesis” value is “+”, the “CD = Collagen deposition” value is “++”, the “FP = Fibroblast proliferation” value is given as “++” and the “GT = Granulation tissue” value was “++”. For the same compound, in data set [3], the “IC = Inflammatory cell infiltration” value is given as “+++”, the “RE = Re-epithelization” value is given as “++” and the “healing rate by histology (in words)” value is “moderate healing rate”.

Source of the values: patent publication US11497765B1, “Thioctamer expedites wound healing” (King Abdulaziz University, priority 2022, dated 2022).
